Laboratory results: PubChem BioAssay (NCI)
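Method: 48-hour compound exposure of cells in 96-well plates, five concentrations, linear interpolation of endpoints. TGI: total growth inhibition.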

Assays:
Test in all cases: NCI-60 cell line screen, 48 h
OVCAR-4 ovarian = test system: OVCAR-4 ovarian
PC-3 prostate = test system: PC-3 prostate
EKVX NSCLC = test system: EKVX NSCLC
SK-MEL-2 melanoma = test system: SK-MEL-2 melanoma
UACC-257 melanoma = test system: UACC-257 melanoma
HCT-15 colon = test system: HCT-15 colon
KM12 colon = test system: KM12 colon
ACHN renal = test system: ACHN renal
IGROV1 ovarian = test system: IGROV1 ovarian
786-0 renal = test system: 786-0 renal
SF-539 CNS = test system: SF-539 CNS
UACC-62 melanoma = test system: UACC-62 melanoma
UO-31 renal = test system: UO-31 renal
SNB-75 CNS = test system: SNB-75 CNS
COLO 205 colon = test system: COLO 205 colon
RPMI-8226 leukemia = test system: RPMI-8226 leukemia
SF-268 CNS = test system: SF-268 CNS
MALME-3M melanoma = test system: MALME-3M melanoma
HL-60(TB) leukemia = test system: HL-60(TB) leukemia
LOX IMVI melanoma = test system: LOX IMVI melanoma
U251 CNS = test system: U251 CNS
NCI/ADR-RES ovarian = test system: NCI/ADR-RES ovarian
HCT-116 colon = test system: HCT-116 colon
HT29 colon = test system: HT29 colon
SN12C renal = test system: SN12C renal
SW-620 colon = test system: SW-620 colon
OVCAR-3 ovarian = test system: OVCAR-3 ovarian
SK-MEL-28 melanoma = test system: SK-MEL-28 melanoma
HOP-62 NSCLC = test system: HOP-62 NSCLC
HOP-92 NSCLC = test system: HOP-92 NSCLC
DU-145 prostate = test system: DU-145 prostate
MDA-N = test system: MDA-N
SF-295 CNS = test system: SF-295 CNS
MOLT-4 leukemia = test system: MOLT-4 leukemia
CCRF-CEM leukemia = test system: CCRF-CEM leukemia
T-47D breast = test system: T-47D breast
SK-MEL-5 melanoma = test system: SK-MEL-5 melanoma
MDA-MB-435 = test system: MDA-MB-435
NCI-H23 lung = test system: NCI-H23 lung
A498 renal = test system: A498 renal
TK-10 renal = test system: TK-10 renal
MDA-MB-231 breast = test system: MDA-MB-231 breast
OVCAR-5 ovarian = test system: OVCAR-5 ovarian
NCI-H460 lung = test system: NCI-H460 lung
BT-549 breast = test system: BT-549 breast
A549 NSCLC = test system: A549 NSCLC
M14 melanoma = test system: M14 melanoma
CAKI-1 renal = test system: CAKI-1 renal
OVCAR-8 ovarian = test system: OVCAR-8 ovarian
SNB-19 CNS = test system: SNB-19 CNS
NCI-H226 lung = test system: NCI-H226 lung
RXF 393 renal = test system: RXF 393 renal
HS 578T breast = test system: HS 578T breast
HCC-2998 colon = test system: HCC-2998 colon
SK-OV-3 ovarian = test system: SK-OV-3 ovarian
NCI-H522 lung = test system: NCI-H522 lung
SR leukemia = test system: SR leukemia
MCF7 breast = test system: MCF7 breast
K-562 leukemia = test system: K-562 leukemia

## O=C(NCCN1CCCC1)c1cn2c(ccc3sc4ccccc4c(=O)c32)n1
OVCAR-4 ovarian
  TGI: 26.3 µM
PC-3 prostate
  TGI: 27.4 µM
EKVX NSCLC
  TGI: 34.8 µM
SK-MEL-2 melanoma
  TGI: 36 µM
UACC-257 melanoma
  TGI: 35 µM
HCT-15 colon
  TGI: 24.4 µM
KM12 colon
  TGI: 37.5 µM
ACHN renal
  TGI: 21.2 µM
IGROV1 ovarian
  TGI: 25 µM
786-0 renal
  TGI: 2.78 µM
SF-539 CNS
  TGI: 30.2 µM
UACC-62 melanoma
  TGI: 31.3 µM
UO-31 renal
  TGI: 26.4 µM
SNB-75 CNS
  TGI: 34.1 µM
COLO 205 colon
  TGI: 26.7 µM
RPMI-8226 leukemia
  TGI: 5.7 µM
SF-268 CNS
  TGI: 30.1 µM
MALME-3M melanoma
  TGI: 31.8 µM
HL-60(TB) leukemia
  TGI: 26.8 µM
LOX IMVI melanoma
  TGI: 3.4 µM
U251 CNS
  TGI: > 51.7 µM
NCI/ADR-RES ovarian
  TGI: 31.2 µM
HCT-116 colon
  TGI: 8.57 µM
HT29 colon
  TGI: 7.67 µM
SN12C renal
  TGI: 26.9 µM
SW-620 colon
  TGI: 3.32 µM
OVCAR-3 ovarian
  TGI: 29.1 µM
SK-MEL-28 melanoma
  TGI: 33.8 µM
HOP-62 NSCLC
  TGI: 25.8 µM
HOP-92 NSCLC
  TGI: 30.1 µM
DU-145 prostate
  TGI: 26.3 µM
MDA-N
  TGI: 33.1 µM
SF-295 CNS
  TGI: 27.1 µM
MOLT-4 leukemia
  TGI: 7.42 µM
CCRF-CEM leukemia
  TGI: 4.53 µM
T-47D breast
  TGI: 38.1 µM
SK-MEL-5 melanoma
  TGI: 31.2 µM
MDA-MB-435
  TGI: > 56.6 µM
NCI-H23 lung
  TGI: 32.4 µM
A498 renal
  TGI: 33.1 µM
TK-10 renal
  TGI: 25.7 µM
MDA-MB-231 breast
  TGI: 7.52 µM
OVCAR-5 ovarian
  TGI: 24.2 µM
NCI-H460 lung
  TGI: 18.6 µM
BT-549 breast
  TGI: 35.6 µM
A549 NSCLC
  TGI: 24.5 µM
M14 melanoma
  TGI: 29.2 µM
CAKI-1 renal
  TGI: 24.2 µM
OVCAR-8 ovarian
  TGI: 9.82 µM
SNB-19 CNS
  TGI: 31.2 µM
NCI-H226 lung
  TGI: 38.1 µM
RXF 393 renal
  TGI: 24.6 µM
HS 578T breast
  TGI: 33.3 µM
HCC-2998 colon
  TGI: 18.6 µM
SK-OV-3 ovarian
  TGI: 30 µM
NCI-H522 lung
  TGI: 27.4 µM
SR leukemia
  TGI: 8.79 µM

## CC1SC(=O)SC1C (configuration not stated)
OVCAR-4 ovarian
  TGI: > 100 µM
PC-3 prostate
  TGI: > 100 µM
EKVX NSCLC
  TGI: > 100 µM
UACC-257 melanoma
  TGI: > 100 µM
HCT-15 colon
  TGI: > 100 µM
KM12 colon
  TGI: > 100 µM
ACHN renal
  TGI: > 100 µM
IGROV1 ovarian
  TGI: > 100 µM
786-0 renal
  TGI: > 100 µM
SF-539 CNS
  TGI: > 100 µM
MCF7 breast
  TGI: > 100 µM
UO-31 renal
  TGI: > 100 µM
SNB-75 CNS
  TGI: > 100 µM
COLO 205 colon
  TGI: > 100 µM
RPMI-8226 leukemia
  TGI: > 100 µM
SF-268 CNS
  TGI: > 100 µM
HL-60(TB) leukemia
  TGI: > 100 µM
U251 CNS
  TGI: > 100 µM
NCI/ADR-RES ovarian
  TGI: > 100 µM
HCT-116 colon
  TGI: > 100 µM
SN12C renal
  TGI: > 100 µM
SW-620 colon
  TGI: > 100 µM
SK-MEL-28 melanoma
  TGI: > 100 µM
HOP-62 NSCLC
  TGI: > 100 µM
MDA-N
  TGI: > 100 µM
SF-295 CNS
  TGI: > 100 µM
MOLT-4 leukemia
  TGI: > 100 µM
CCRF-CEM leukemia
  TGI: > 100 µM
T-47D breast
  TGI: > 100 µM
SK-MEL-5 melanoma
  TGI: > 100 µM
MDA-MB-435
  TGI: > 100 µM
TK-10 renal
  TGI: > 100 µM
MDA-MB-231 breast
  TGI: > 100 µM
OVCAR-5 ovarian
  TGI: > 100 µM
NCI-H460 lung
  TGI: > 100 µM
K-562 leukemia
  TGI: > 100 µM
A549 NSCLC
  TGI: > 100 µM
M14 melanoma
  TGI: > 100 µM
OVCAR-8 ovarian
  TGI: > 100 µM
SNB-19 CNS
  TGI: > 100 µM
HS 578T breast
  TGI: > 100 µM
HCC-2998 colon
  TGI: > 100 µM
SK-OV-3 ovarian
  TGI: > 100 µM
NCI-H522 lung
  TGI: > 100 µM
SR leukemia
  TGI: > 100 µM
